Data published in US4734411A, “Pyrrolizidine compounds, salts thereof, process for the preparation of same and pharmaceutical agents comprising same” (Sanwa Kagaku Kenkyusho Co., Ltd., priority 1985, dated 1988).
Read-outs that look alike come from different tables or passages of the source.

How the values were obtained:
pupil diameter = test: Influence on pupil diameter of mice (mydriatic effect); type: in vivo, ICR mice, male; conditions: oral, 30 minutes
Experimental: (Influence on pupil diameter of mice)
Some pyrrolizidine compounds according to the invention were tested to evaluate their influence on the pupil diameter of mice, in comparison with Pirenzepine and Atropine as controls.
The animals were deprived of food for 18 hours prior to the test. After 30 minutes from oral administration of the compounds, the pupil width was measured by a micrometer. Results are shown in following Table 3 in terms of ratio of pupil diameter and mydriatic effect.

[1] = tested on: stress induced gastric ulcer; test: Stress ulcer in rats (restraint and water immersion); type: in vivo, Wistar rats, male; conditions: for Inhibition (%): an hour before the restraint; for ED50: Rattus norvegicus
Experimental: Some pyrrolizidine compounds according to the invention were tested to evaluate their anti-ulcer activity in comparison with Pirenzepine and Cimetidine as controls, in accordance with the procedure proposed by Takagi et al.["Japan. J. Pharmacol." Vol. 18, page 9 (1968)].
Wistar rats of male sex were used, each having the body weight of 138 to 207 g. The animals were deprived of food for 24 hours prior to the test. They were immobilized in a restraint cage and immersed for 7 hours to the height of the xiphoid in a water bath kept at 23±1° C. After inflation with 10 ml of 1% formalin, the isolated stomach was opened along the greater curvature. The ulcer index was determined as the sum of the length (mm) of each erosion per rat. The compounds were administered orally an hour before the restraint.

[2] = in words, related arts; cited from earlier work
[3] = tested on: aspirin induced gastric ulcer; test: Aspirin ulcer in rats (pylorus ligated); type: in vivo, Sprague-Dawley rats, male; conditions: for Inhibition (%): an hour before pylorus ligation and aspirin (100 mg/kg); for ED50: Rattus norvegicus
Experimental: Some pyrrolizidine compounds according to the invention were tested to evaluate their anti-ulcer activity on Aspirin ulcer, in comparison with Pirenzepine and Cimetidine as controls, in accordance with the procedure proposed by Okabe et al. ["Japan. J. Pharmacol." Vol. 24, page 363 (1974)].
Sprague-Dawley rats of male sex were used, each having the body weight of 146 to 210 g. The animals were deprived of food for 24 hours prior to the test. After an hour from oral administration of the compounds, the pylorus was ligated under anesthesia by ethyl ether and aspirin (100 mg/kg) suspended with 5% gum arabic was orally administered. After 7 hours from the administration, the stomach was isolated and inflated with 10 ml of 1% formalin. The ulcer index was determined as the sum of the length (mm) of each erosion per rat.
Results are shown in following Table 2 in terms of percent inhibition of anti-ulcer activity with respect to concentrations of 10 to 100 mg/kg.

Acute toxicity in mice = type: in vivo; conditions: mouse, in vivo; oral, 7 days, 5 animals, Litchfield-Wilcoxon's method
Experimental: (§1) Some pyrrolizidine compounds according to the invention were tested to evaluate their acute toxicity in mice.
(§2) ICR mice of male sex were used, each having the body weight of 24.8 to 30.0 g. The compounds were orally administered and general condition, behavior and mortality were observed daily throughout the experimental period of time (7 days). At end of the period, the surviving animals were sacrificed. Dead animals were sacrificed at the time when they were recognized to be dead. LD50 value was calculated in accordance with Litchfield-Wilcoxon's method.

ICR mice = test: Acute toxicity in mice; type: in vivo; conditions: oral, 7 days, of 5 animals; numeral in parenthesis
Experimental: as §1, §2

[4] = oral, concentration of inhibitor which gives 50% inhibition, read-out: ED50
[5] = 30 mg/kg, Atropine (1 mg/kg) = 1.00

CN1[C@@H]2CC[C@H]1C[C@@H](OC(=O)C(CO)c1ccccc1)C2 (stereo partly drawn) [Atropine, reference compound]
Rate of pupil dia. (pre. = 1) (pupil diameter; 1 mg/kg): 4.7
Ratio of mydriasis (pupil diameter; 1 mg/kg): 1.00

CN/C(=N/CCSCc1nc[nH]c1C)NC#N [Cimetidine, reference compound]
Inhibition (%) ([1]; 10 mg/kg, oral): 16.9%
Inhibition (%) ([1]; 100 mg/kg, oral): 81.5%
ED50 ([1]; po): 33.8 mg/kg
side effects [2]: side effects of forming a perforation in ulcer and strengthening a delayed hypersensitive reaction
Inhibition (%) ([3]; 10 mg/kg, oral): 12.2%
Inhibition (%) ([3]; 100 mg/kg, oral): 69.6%
ED50 ([3]; po): 50.4 mg/kg

c1ccc2c(c1)Sc1ccccc1N2CC12CCCN1CCC2 [Example 1, 10-(7a-Pyrrolizidinylmethyl)phenothiazine]
LD50 at 168 h (Acute toxicity in mice): > 1000 mg/kg
Inhibition (%) ([1]; 10 mg/kg, oral): 55.4%
Inhibition (%) ([1]; 100 mg/kg, oral): 92.5%
ED50 [1, 4]: < 10 mg/kg
Rate of pupil dia. (pre. = 1) (pupil diameter; 30 mg/kg): 2.7
Ratio of mydriasis (pupil diameter; [5]): 0.57
Inhibition (%) ([3]; 10 mg/kg, oral): 58.3%
Inhibition (%) ([3]; 100 mg/kg, oral): 63.5%
ED50 [3, 4]: < 10 mg/kg

c1ccc2c(c1)Sc1ccccc1N2CCC12CCCN1CCC2 [Example 2, 10-[2-(7a-Pyrrolizidinyl)ethyl)phenothiazine]
LD50 at 168 h (Acute toxicity in mice): < 1000 mg/kg
number of dead animals (ICR mice): 4
Inhibition (%) ([1]; 10 mg/kg, oral): 38.6%
Inhibition (%) ([1]; 100 mg/kg, oral): 87.0%
ED50 [1, 4]: 16.4 mg/kg
Rate of pupil dia. (pre. = 1) (pupil diameter; 30 mg/kg): 4.6
Ratio of mydriasis (pupil diameter; [5]): 0.98
Inhibition (%) ([3]; 10 mg/kg, oral): 53.3%
Inhibition (%) ([3]; 100 mg/kg, oral): 73.2%
ED50 [3, 4]: < 10 mg/kg

CN(C)S(=O)(=O)c1ccc2c(c1)N(CC13CCCN1CCC3)c1ccccc1S2 [Example 3, 2-(N,N-Dimethylsulfamoyl)-10-(7a-pyrrolizidinylmethyl)phenothiazine]
LD50 at 168 h (Acute toxicity in mice): > 1000 mg/kg
Inhibition (%) ([1]; 10 mg/kg, oral): 49.4%
Inhibition (%) ([1]; 100 mg/kg, oral): 65.6%
ED50 [1, 4]: 11.8 mg/kg
Rate of pupil dia. (pre. = 1) (pupil diameter; 30 mg/kg): 1.1
Ratio of mydriasis (pupil diameter; [5]): 0.23
Inhibition (%) ([3]; 10 mg/kg, oral): 19.7%
Inhibition (%) ([3]; 100 mg/kg, oral): 36.5%
ED50 [3, 4]: > 100 mg/kg

C[Si](C)(C)c1cccc2c1N(CC13CCCN1CCC3)c1ccccc1S2 [Example 4, 10-(7a-Pyrrolizidinylmethyl)-1-trimethylsilylphenothiazine]
LD50 at 168 h (Acute toxicity in mice): > 1000 mg/kg
Inhibition (%) ([3]; 10 mg/kg, oral): 17.7%
Inhibition (%) ([3]; 100 mg/kg, oral): 65.6%
ED50 ([3]; po): 60.4 mg/kg

O=C1Nc2cccnc2N(C(=O)C23CCCN2CCC3)c2ccccc21 [Example 5, 5,11-Dihydro-11-(pyrrolizidine-7a-carbonyl)-6H-pyrido(2,3-b)(1,4)-benzodiazepin-6-one]
LD50 at 168 h (Acute toxicity in mice): > 1000 mg/kg
number of dead animals (ICR mice): 1
Inhibition (%) ([1]; 10 mg/kg, oral): 31.7%
Inhibition (%) ([1]; 100 mg/kg, oral): 80.2%
ED50 [1, 4]: 23.6 mg/kg
Rate of pupil dia. (pre. = 1) (pupil diameter; 30 mg/kg): 0.9
Ratio of mydriasis (pupil diameter; [5]): 0.19
Inhibition (%) ([3]; 10 mg/kg, oral): 23.6%
Inhibition (%) ([3]; 100 mg/kg, oral): 82.2%
ED50 [3, 4]: 27.9 mg/kg

CN1CCN(CC(=O)N2c3ccccc3C(=O)Nc3cccnc32)CC1 [Pirenzepine, reference compound]
Inhibition (%) ([1]; 10 mg/kg, oral): 7.2%
Inhibition (%) ([1]; 100 mg/kg, oral): 98.8%
ED50 [1, 4]: 26.3 mg/kg
side effects [2]: side reactions due to supression of muscarinic receptor, although those are somewhat weak
Rate of pupil dia. (pre. = 1) (pupil diameter; 30 mg/kg): 3.4
Ratio of mydriasis (pupil diameter; [5]): 0.72
Inhibition (%) ([3]; 10 mg/kg, oral): 22.1%
Inhibition (%) ([3]; 100 mg/kg, oral): 90.5%
ED50 [3, 4]: 23.7 mg/kg
